Data: US4560679A, “Organosilicon compounds and antitumor agents containing the compound as effective component” (Sanwa Kagaku Kenkyusho Co. Ltd., priority 1982, dated 1985)
Values after ≈ are worked out from the molar mass of the structure shown. Where two headings read alike, the source gives them in different places.

Columns and labels:
acute toxicity = settings: mouse, in vivo, ICR female mice, observed 7 days
Excerpt: Each of compounds according to the invention was suspended in 0.1% P-1570 aqueous solution of sugar ester or 0.5% CMC aqueous solution. The suspension abdominally or orally dosed to ICR female mice (weight: 20±1 g).

[1] = tested on: Lewis lung carcinoma (LLC); assay: proliferation inhibiting effect in explantation (LLC); format: cell-based; settings: 72 h, 3 days culture with compound, living cells by dye-exclusion (tripan blue)
Experimental: (§1) Test 1 (proliferation inhibiting effect in explantation)
(§2) Following carcinomata are employed.
(1) Lewis lung carcinoma (hereinafter referred to as "LLC"),
(§3) 1×10^5 cells of each carcinoma are cultured for 24 hours in an ox serum eagle culture solution with use of a culture test tube and a carbon dioxide gas culturing device (5% CO2, 37° C.). After 24 hours, the used culture solution was flowed-out and each 0.1 ml of a freshly prepared culture solution containing a compound according to the invention was added to further continue the culture for 3 days. After completion of the culture, number of living cells was measured with use of a dye-exclusion method due to tripan blue dying. To each of control groups, 0.1 ml of the same culture solution but containing no compound according to the invention was added.
(§4) Concentrations on 50% inhibition of the carcinoma cells (IC50) were determined between the testing groups and control groups, according to the manner as stated above.

[2] = tested on: B-16 melanoma carcinoma (B-16); assay: proliferation inhibiting effect in explantation (B-16); format: cell-based; settings: Mus musculus, B16, 72 h, 3 days culture with compound, living cells by dye-exclusion (tripan blue)
Experimental: as §1, §2
(§5) (4) B-16 melanoma carcinoma (hereinafter referred to as "B-16").
as §3, §4

[3] = tested on: B-16 melanoma carcinoma (B-16); assay: carcinoma cell weight inhibiting effect in mice (B-16); format: in vivo; settings: BDF mice; oral, 1/5 LD50 one time/day for 5 days; 21 days from final dosage
Excerpt: as §5
(§6) Test 2 (carcinoma cell weight inhibiting effect in mice)
(§7) B-16 and EAC were given to BDF and ICR-CD mice, respectively by a hypodermic injection. 1.0×10^5 cells on B-16 and 5.0×10^6 cells on EAC were given to each mouse. Each of the compounds according to the invention was orally dosed for 5 days in an amount of 1/5 LD50 (one time/day). After lapsed 21 days from the final dosage, the carcinoma of each mouse was exenterated, measured its weight and calculated a mean weight as the inhibiting ratio which is shown in the following Table.

K.B. carcinoma (KB) = assay: proliferation inhibiting effect in explantation (KB); format: cell-based; settings: 72 h, 3 days culture with compound, living cells by dye-exclusion (tripan blue)
Experimental: as §1, §2
(3) K.B. carcinoma (hereinafter referred to as "KB"), and
as §3, §4

[4] = tested on: Ehrlich ascites carcinoma (EAC); assay: carcinoma cell weight inhibiting effect in mice (EAC); format: in vivo; settings: ICR-CD mice; oral, 1/5 LD50 one time/day for 5 days; 21 days from final dosage
Excerpt: (§8) (2) Ehrlich ascites carcinoma (hereinafter referred to as "EAC"),
as §6, §7

[5] = tested on: Ehrlich ascites carcinoma (EAC); assay: proliferation inhibiting effect in explantation (EAC); format: cell-based; settings: 72 h, 3 days culture with compound, living cells by dye-exclusion (tripan blue)
Experimental: as §1, §2, §8, §3, §4

[6] = ip, abdominal dosage, read-out: Acute Toxicity LD50, Abdominal Dosage
[7] = oral dosage, read-out: Acute Toxicity LD50, Oral Dosage

Row | SMILES | LD50 at 168 h (acute toxicity; [6]) [mg/kg] | LD50 at 168 h (acute toxicity; [7]) [mg/kg] | IC50 [1] [µg/mL] | IC50 [2] [µg/mL] | inhibiting ratio (carcinoma weight), B-16 [3] | IC50 (K.B. carcinoma (KB)) [µg/mL] | inhibiting ratio (carcinoma weight), EAC [4] | IC50 [5] [µg/mL]
1 | C[Si](C)(C)CCSCCNC(=O)c1cccs1 [SKK-023] | > 1000 | > 2000 | – | – | – | – | – | –
2 | C[Si](C)(C)CCSCCNC(=O)c1cccnc1 [SKK-021] | < 500 | > 2000 | 5 (≈ 17.7 µM) | < 5 | 93 | 10 (≈ 35.4 µM) | 70 | 12 (≈ 42.5 µM)
3 | C[Si](C)(C)CCSCCNC(=O)c1ccco1 [SKK-022] | < 1000 | > 2000 | 9 (≈ 33.2 µM) | 20 (≈ 73.7 µM) | 58 | 17 (≈ 62.6 µM) | 65 | 15 (≈ 55.3 µM)
4 | CCCCCCCC(=O)NCCSCC[Si](C)(C)C [SKK-027] | 2000 to 3000 | > 3000 | – | – | – | – | – | –
5 | C=CCNCCSCC[Si](C)(C)C [SKK-011] | 134 | 846 | – | – | – | – | – | –
6 | CNCCSCC[Si](C)(C)C [SKK-009] | 189 | 800 | – | – | – | – | – | –
7 | C[Si](C)(C)CCSCCNC(=O)c1ccccc1 [SKK-012] | 1190 | > 2000 | 4.3 (≈ 15.3 µM) | 16 (≈ 56.8 µM) | 62 | 17 (≈ 60.4 µM) | 76 | 15 (≈ 53.3 µM)
8 | C[Si](C)(C)CCSCCNC1CCCCC1 [SKK-010] | 152 | 825 | – | – | – | – | – | –
9 | C[Si](C)(C)CCSCCNC(=O)c1cccc2ccccc12 [SKK-024] | > 2000 | > 3000 | 13 (≈ 39.2 µM) | 25 (≈ 75.4 µM) | 60 | 14 (≈ 42.2 µM) | 62 | 18 (≈ 54.3 µM)
10 | C[Si](C)(C)CCSCCNC(=O)C1CCCCC1 [SKK-026] | 500 to 1000 | 1000 to 2000 | – | – | – | – | – | –
11 | CC(=O)NCCSCC[Si](C)(C)C [SKK-025] | ~100 | 1000 to 2000 | – | – | – | – | – | –
12 | Cc1ccc(S(=O)(=O)NCCSCC[Si](C)(C)C)cc1 [SKK-028] | > 2500 | > 3000 | 14 (≈ 42.2 µM) | 14 (≈ 42.2 µM) | 85 | 10 (≈ 30.2 µM) | 55 | 30 (≈ 90.5 µM)
